Experimental data published in US20260166128A1, “HUMAN AMYLIN ANALOG, AND DERIVATIVE THEREOF AND USE THEREOF” (priority 2022, published 2026).
Numbered stars: 1 amine (or outer) side, 2 acyl side, 3 side chain; on linkers, the order of the positions; unused ones are H or OH. Bridge positions count the residues as written; N and C are the ends. Square brackets hold non-standard residues; d marks the D form. Side chains are listed from the residue outwards. Peptide text beside a SMILES is read from it. * marks the point of attachment. C20 diacid = O=C(O)CCCCCCCCCCCCCCCCCCC(=O)*; γGlu = O=C(O)[C@H](CCC(=O)[*:2])N[*:1]; Hyp = O=C(O)[C@@H]1C[C@@H](O)CN1; Aze = O=C(O)[C@@H]1CCN1

Legend:
[1] = molecular target: T1, human amylin receptor (Homo sapiens, UniProt O60896+P30988); assay: Luciferase assay of amylin derivatives in amylin receptor/CRE-luc CHO cell line; type: cell-based; details: CHO-K1/Ga15/AMY3 CRE-luc cells, 24 hours incubation, F12 medium containing 10% FBS; read-out: EC50
T1 construct: host or cells: CHO-K1/Ga15/AMY3 cells, further stably transfected with a CRE-luciferase plasmid
T1 sequence (P30988 25-474): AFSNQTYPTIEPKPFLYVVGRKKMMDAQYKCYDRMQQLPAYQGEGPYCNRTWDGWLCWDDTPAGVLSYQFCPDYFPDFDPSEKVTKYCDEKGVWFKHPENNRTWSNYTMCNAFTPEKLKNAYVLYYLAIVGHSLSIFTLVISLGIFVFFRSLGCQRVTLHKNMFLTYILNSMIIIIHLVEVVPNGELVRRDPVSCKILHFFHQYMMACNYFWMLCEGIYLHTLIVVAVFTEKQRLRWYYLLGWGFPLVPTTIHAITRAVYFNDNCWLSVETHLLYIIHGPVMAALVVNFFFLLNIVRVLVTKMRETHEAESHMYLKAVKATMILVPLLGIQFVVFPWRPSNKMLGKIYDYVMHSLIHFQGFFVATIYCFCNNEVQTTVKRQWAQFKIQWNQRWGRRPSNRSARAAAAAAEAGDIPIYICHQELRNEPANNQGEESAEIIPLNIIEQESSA
T1 sequence (O60896 24-148 partner): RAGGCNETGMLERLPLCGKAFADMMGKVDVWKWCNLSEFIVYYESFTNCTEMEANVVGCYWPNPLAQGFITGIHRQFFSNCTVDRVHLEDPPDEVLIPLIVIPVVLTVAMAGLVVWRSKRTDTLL
Description: The experiment was intended to detect the activity or efficacy of the amylin derivatives on a human amylin receptor in vitro by luciferase assay.
50 μL of growth medium (F12 medium containing 10% FBS) was added into each well of a white 96-well plate, and the stably transfected amylin/CRE-lue CHO cells were inoculated into the white 96-well plate at a density of about 20,000 cells/well for activity determination.

[2] = Freeze-thaw stability of derivatives (freeze-thaw yield by liquid chromatography); type: physicochemical; details: for Freeze storage yield: concentration of polypeptide after freezing and thawing / concentration before, by liquid chromatography, −20° C. overnight; for Dissolution property: appearance after dissolution at 0.2 mg/ml in 20 mM phosphate buffer solution (PB) (pH 7.0); for Freeze storage property: appearance after overnight storage at −20° C. and thawing to room temperature, 0.2 mg/ml in 20 mM PB (pH 7.0)
Outline: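 Freeze-thaw yield is the ratio of peptide concentration after versus before one overnight −20° C freeze and room-temperature thaw, both quantified by RP-HPLC of supernatant after centrifugation. Samples were 0.2 mg/ml freeze-dried derivative in 20 mM PB, pH 7.0.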

EC50 [1]	Freeze storage yield [2]	Dissolution property [2]	Freeze storage property [2]	SMILES
0.073 nM	0.00%	–	–	CC[C@H](C)[C@H](NC(=O)[C@@H]1CCCN1C(=O)[C@H](CCCCNC(=O)CC[C@H](NC(=O)CCCCCCCCCCCCCCCCCCC(=O)O)C(=O)O)NC(=O)[C@H](CC(C)C)NC(=O)[C@H](CC(N)=O)NC(=O)[C@H](CC(N)=O)NC(=O)[C@H](CO)NC(=O)[C@H](CO)NC(=O)[C@H](Cc1c[nH]cn1)NC(=O)[C@H](CCCNC(=N)N)NC(=O)[C@H](CC(C)C)NC(=O)[C@H](Cc1ccccc1)NC(=O)[C@H](CCC(=O)O)NC(=O)[C@H](C)NC(=O)[C@H](CC(C)C)NC(=O)[C@H](CCCNC(=N)N)NC(=O)[C@H](CCC(N)=O)NC(=O)[C@@H](NC(=O)[C@H](C)NC(=O)[C@@H]1CSSC[C@H](NC(=O)[C@@H](N)CCCNC(=N)N)C(=O)N[C@@H](CC(N)=O)C(=O)N[C@@H]([C@@H](C)O)C(=O)N[C@@H](C)C(=O)N[C@@H]([C@@H](C)O)C(=O)N1)[C@@H](C)O)C(=O)N[C@@H](CC(C)C)C(=O)N1CCC[C@H]1C(=O)N1CCC[C@H]1C(=O)N[C@H](C(=O)N[C@@H](CC(N)=O)C(=O)N[C@H](C(=O)NCC(=O)N[C@@H](CO)C(=O)N[C@@H](CC(N)=O)C(=O)N[C@H](C(=O)N1CCC[C@H]1C(N)=O)[C@@H](C)O)C(C)C)[C@@H](C)O [PD047] (H-RCNTATCATQRLAEFLRHSSNNLK([γGlu-C20 diacid])PILPPTNVGSNTP-NH2; disulfide 2-7 (inferred); N-terminus assumed)
0.215 nM	99.00%	Clear	Clear	CC[C@H](C)[C@H](NC(=O)[C@@H]1CCCN1C(=O)[C@H](CCCCNC(=O)CC[C@H](NC(=O)CCCCCCCCCCCCCCCCCCC(=O)O)C(=O)O)NC(=O)[C@H](CC(C)C)NC(=O)[C@H](CC(N)=O)NC(=O)[C@H](CC(N)=O)NC(=O)[C@H](CO)NC(=O)[C@H](CO)NC(=O)[C@H](Cc1c[nH]cn1)NC(=O)[C@H](CCCNC(=N)N)NC(=O)[C@H](CC(C)C)NC(=O)[C@H](Cc1ccccc1)NC(=O)[C@H](CCC(=O)O)NC(=O)[C@H](C)NC(=O)[C@H](CC(C)C)NC(=O)[C@H](CCCNC(=N)N)NC(=O)[C@H](CCC(N)=O)NC(=O)[C@@H](NC(=O)[C@H](C)NC(=O)[C@@H]1CSSC[C@H](N)C(=O)N[C@@H](CC(N)=O)C(=O)N[C@@H]([C@@H](C)O)C(=O)N[C@@H](C)C(=O)N[C@@H]([C@@H](C)O)C(=O)N1)[C@@H](C)O)C(=O)N[C@@H](CC(C)C)C(=O)N1CCC[C@H]1C(=O)N1CCC[C@H]1C(=O)N[C@H](C(=O)N[C@@H](CC(N)=O)C(=O)N[C@H](C(=O)NCC(=O)N[C@@H](CO)C(=O)N[C@@H](CC(N)=O)C(=O)N[C@H](C(=O)N1CCC[C@H]1C(N)=O)[C@@H](C)O)C(C)C)[C@@H](C)O [PD049] (H-CNTATCATQRLAEFLRHSSNNLK([γGlu-C20 diacid])PILPPTNVGSNTP-NH2; disulfide 1-6 (inferred); N-terminus assumed)
0.098 nM	99.66%	Clear	Clear	CC[C@H](C)[C@H](NC(=O)[C@@H]1CCCN1C(=O)[C@H](CCCCNC(=O)CC[C@H](NC(=O)CCCCCCCCCCCCCCCCCCC(=O)O)C(=O)O)NC(=O)[C@H](CC(C)C)NC(=O)[C@H](CC(N)=O)NC(=O)[C@H](CC(N)=O)NC(=O)[C@H](CO)NC(=O)[C@H](CO)NC(=O)[C@H](Cc1c[nH]cn1)NC(=O)[C@H](CCCNC(=N)N)NC(=O)[C@H](CC(C)C)NC(=O)[C@H](Cc1ccccc1)NC(=O)[C@H](CC(=O)O)NC(=O)[C@H](C)NC(=O)[C@H](CC(C)C)NC(=O)[C@H](CCCNC(=N)N)NC(=O)[C@H](CCC(N)=O)NC(=O)[C@@H](NC(=O)[C@H](C)NC(=O)[C@@H]1CSSC[C@H](N)C(=O)N[C@@H](CC(N)=O)C(=O)N[C@@H]([C@@H](C)O)C(=O)N[C@@H](C)C(=O)N[C@@H]([C@@H](C)O)C(=O)N1)[C@@H](C)O)C(=O)N[C@@H](CC(C)C)C(=O)N1CCC[C@H]1C(=O)N1CCC[C@H]1C(=O)N[C@H](C(=O)N[C@@H](CC(N)=O)C(=O)N[C@H](C(=O)NCC(=O)N[C@@H](CO)C(=O)N[C@@H](CC(N)=O)C(=O)N[C@H](C(=O)N1CCC[C@H]1C(N)=O)[C@@H](C)O)C(C)C)[C@@H](C)O [PD050] (H-CNTATCATQRLADFLRHSSNNLK([γGlu-C20 diacid])PILPPTNVGSNTP-NH2; disulfide 1-6 (inferred))
0.03 nM	96.53%	Clear	Clear	CC[C@H](C)[C@H](NC(=O)[C@@H]1CCCN1C(=O)[C@H](CCCCNC(=O)CC[C@H](NC(=O)CCCCCCCCCCCCCCCCCCC(=O)O)C(=O)O)NC(=O)[C@H](CC(C)C)NC(=O)[C@H](CC(N)=O)NC(=O)[C@H](CC(N)=O)NC(=O)[C@H](CO)NC(=O)[C@H](CO)NC(=O)[C@H](Cc1c[nH]cn1)NC(=O)[C@H](CCCNC(=N)N)NC(=O)[C@H](CC(C)C)NC(=O)[C@H](Cc1ccccc1)NC(=O)[C@H](CC(=O)O)NC(=O)[C@H](C)NC(=O)[C@H](CC(C)C)NC(=O)[C@H](CCCNC(=N)N)NC(=O)[C@H](CCC(N)=O)NC(=O)[C@@H](NC(=O)[C@H](C)NC(=O)[C@@H]1CSSC[C@H](NC(=O)[C@@H](N)CCCNC(=N)N)C(=O)N[C@@H](CC(N)=O)C(=O)N[C@@H]([C@@H](C)O)C(=O)N[C@@H](C)C(=O)N[C@@H]([C@@H](C)O)C(=O)N1)[C@@H](C)O)C(=O)N[C@@H](CC(C)C)C(=O)N1CCC[C@H]1C(=O)N1CCC[C@H]1C(=O)N[C@H](C(=O)N[C@@H](CC(N)=O)C(=O)N[C@H](C(=O)NCC(=O)N[C@@H](CO)C(=O)N[C@@H](CC(N)=O)C(=O)N[C@H](C(=O)N1C[C@H](O)C[C@H]1C(N)=O)[C@@H](C)O)C(C)C)[C@@H](C)O [PD052] (H-RCNTATCATQRLADFLRHSSNNLK([γGlu-C20 diacid])PILPPTNVGSNT[Hyp]-NH2; disulfide 2-7 (inferred); N-terminus assumed)
0.246 nM	104.35%	Clear	Clear	CC[C@H](C)[C@H](NC(=O)[C@@H]1CCCN1C(=O)[C@H](CCCCNC(=O)CC[C@H](NC(=O)CCCCCCCCCCCCCCCCCCC(=O)O)C(=O)O)NC(=O)[C@H](CC(C)C)NC(=O)[C@H](CC(N)=O)NC(=O)[C@H](CC(N)=O)NC(=O)[C@H](CO)NC(=O)[C@H](CO)NC(=O)[C@H](Cc1c[nH]cn1)NC(=O)[C@H](CCCNC(=N)N)NC(=O)[C@H](CC(C)C)NC(=O)[C@H](Cc1ccccc1)NC(=O)[C@H](CC(=O)O)NC(=O)[C@H](C)NC(=O)[C@H](CC(C)C)NC(=O)[C@H](CCCNC(=N)N)NC(=O)[C@H](CCC(N)=O)NC(=O)[C@@H](NC(=O)[C@H](C)NC(=O)[C@@H]1CSSC[C@H](NC(=O)[C@@H](N)CCCNC(=N)N)C(=O)N[C@@H](CC(N)=O)C(=O)N[C@@H]([C@@H](C)O)C(=O)N[C@@H](C)C(=O)N[C@@H]([C@@H](C)O)C(=O)N1)[C@@H](C)O)C(=O)N[C@@H](CC(C)C)C(=O)N1CCC[C@H]1C(=O)N1CCC[C@H]1C(=O)N[C@H](C(=O)N[C@@H](CC(N)=O)C(=O)N[C@H](C(=O)NCC(=O)N[C@@H](CO)C(=O)N[C@@H](CC(N)=O)C(=O)N[C@H](C(=O)N1CC[C@H]1C(N)=O)[C@@H](C)O)C(C)C)[C@@H](C)O [PD060] (H-RCNTATCATQRLADFLRHSSNNLK([γGlu-C20 diacid])PILPPTNVGSNT[Aze]-NH2; disulfide 2-7 (inferred))
